Measurements published in patent US20100099770A1, “METHOD FOR TREATING DIABETIC PERIPHERAL NEUROPATHIC PAIN” (SCHWARZ PHARMA AG, priority 2001, published 2010).
Entries after “also recorded” stand apart in the source; their conditions may differ.

Key:
[1] = test system: formalin-induced tonic inflammatory nociceptive behaviour; experiment: Formalin test, rat (weighted behavioural scoring); format: in vivo; conditions: for Weighted pain score: score 0-3, ±SEM; for effect on formalin-induced nociceptive behaviour (in words): i.p. just prior to formalin, 5-40 mg/kg, late phase
Protocol: The formalin test is a chemically-induced tonic pain model in which biphasic changes of nociceptive behaviour are assessed and spinal/supraspinal plasticity of nociception is considered as a molecular basis for neuropathic pain particularly during the second (=late) phase of the test, during which most clinically used drugs against neuropathic pain are active.
The compound was tested for anti-nociceptive properties by use of the weighted behavioural scoring method: Freely moving animals underwent observational assessment of the position of the left hind paw according to a rating score scaled 0-3 before and 10, 20, 30 and 40 min after injection of 0.05 ml of sterile 2.5% formalin under the skin on the dorsal surface of the paw.

[2] = test system: acute spinal thermal nociception; experiment: Tail flick test, rat; format: in vivo; conditions: for Anti-nociceptive effect: ±SEM
Source text: Harkoseride was additionally tested for potential activity in acute spinal thermal nociception using the tail flick test. In this model of acute thermal spinal/reflex hyperalgesia radiant heat is applied to the animal's tail approximately 2 cm from the tip and time latency for withdrawal reaction is automatically assessed by an algometer, a defined maximal stimulus time prevents tissue damage. This test is widely used as an assay for the anti-nociceptive efficacy of pharmacological agents and is highly predictive of acute analgesic efficacy in humans.
Results for 20 and 40 mg/kg harkoseride i.p are shown in table 5 [percent anti-nociception, calculated as [{(post-drug latency)−(pre-drug-latency)}/{(max. latency)−(pre-drug latency)}×100]±SEM, n=12/group]. A baseline or pre-drug tail-flick latency was determined by averaging 5 consecutive measurements taken 2 minutes apart. Vehicle (sterile water 0.04 ml/10 g body weight) or harkoseride were then administered and tail flick latencies recorded at 10-minute intervals for the next 60 minutes.

COC[C@@H](NC(C)=O)C(=O)NCc1ccccc1 [SPM 927, (R)-2-Acetamido-N-benzyl-3-methoxypropionamide]
Weighted pain score ([1]; 5 mg/kg i.p., 10 min after formalin): 0.31 ± 0.11 | Weighted pain score ([1]; 5 mg/kg i.p., 20 min after formalin): 0.78 ± 0.23 | Weighted pain score ([1]; 5 mg/kg i.p., 30 min after formalin): 1.47 ± 0.20 | Weighted pain score ([1]; 5 mg/kg i.p., 40 min after formalin): 1.46 ± 0.19 | Weighted pain score ([1]; 10 mg/kg i.p., 10 min after formalin): 0.42 ± 0.17 | Weighted pain score ([1]; 10 mg/kg i.p., 20 min after formalin): 0.33 ± 0.16 | Weighted pain score ([1]; 10 mg/kg i.p., 30 min after formalin): 1.02 ± 0.27 | Weighted pain score ([1]; 10 mg/kg i.p., 40 min after formalin): 1.05 ± 0.19 | Weighted pain score ([1]; 20 mg/kg i.p., 10 min after formalin): 0.48 ± 0.18 | Weighted pain score ([1]; 20 mg/kg i.p., 20 min after formalin): 0.57 ± 0.14 | Weighted pain score ([1]; 20 mg/kg i.p., 30 min after formalin): 0.78 ± 0.18 | Weighted pain score ([1]; 20 mg/kg i.p., 40 min after formalin): 1.02 ± 0.24 | Weighted pain score ([1]; 40 mg/kg i.p., 10 min after formalin): 0.12 ± 0.05 | Weighted pain score ([1]; 40 mg/kg i.p., 20 min after formalin): 0.10 ± 0.04 | Weighted pain score ([1]; 40 mg/kg i.p., 30 min after formalin): 0.09 ± 0.06 | Weighted pain score ([1]; 40 mg/kg i.p., 40 min after formalin): 0.12 ± 0.06 | effect on formalin-induced nociceptive behaviour (in words) ([1]; listed as Harkoseride): dose dependant reduction | effect on formalin-induced nociceptive behaviour (in words) ([1]; listed as harkoseride): Significant and dose dependent efficacy | Anti-nociceptive effect ([2]; 20 mg/kg i.p., 10 min after drug): 5.0 ± 3.94% | Anti-nociceptive effect ([2]; 20 mg/kg i.p., 20 min after drug): 9.7 ± 7.51% | Anti-nociceptive effect ([2]; 20 mg/kg i.p., 30 min after drug): 9.7 ± 2.37% | Anti-nociceptive effect ([2]; 20 mg/kg i.p., 40 min after drug): 1.7 ± 7.42% | Anti-nociceptive effect ([2]; 20 mg/kg i.p., 50 min after drug): 5.4 ± 4.12% | Anti-nociceptive effect ([2]; 20 mg/kg i.p., 60 min after drug): 8.1 ± 5.20% | Anti-nociceptive effect ([2]; 40 mg/kg i.p., 10 min after drug): −1.6 ± 12.82% | Anti-nociceptive effect ([2]; 40 mg/kg i.p., 20 min after drug): −4.3 ± 14.04% | Anti-nociceptive effect ([2]; 40 mg/kg i.p., 30 min after drug): −2.3 ± 9.14% | Anti-nociceptive effect ([2]; 40 mg/kg i.p., 40 min after drug): −4.4 ± 11.44% | Anti-nociceptive effect ([2]; 40 mg/kg i.p., 50 min after drug): 0.3 ± 15.50% | Anti-nociceptive effect ([2]; 40 mg/kg i.p., 60 min after drug): −5.5 ± 14.11% | effect in the tail flick test (in words) ([2]; 20 and 40 mg/kg i.p., listed as harkoseride): negative results; also recorded: little or no effect; also recorded: no anti-nociceptive effect
